Laboratory results: US20200030368A1, “A POLYMER NETWORK, METHOD FOR PRODUCTION, AND USES THEREOF” (priority 2016, published 2020)

Assays:
[1] = test system: A. baumannii; assay: Resistance study by serial passaging at sub-MIC; type: cell-based; conditions: 14 passages at sub-MIC (MIC/2)
Method: (§1) Two control antibiotics norfloxacin and colistin were chosen for S. aureus and for A. baumannii, respectively. In case of norfloxacin and colistin also, the initial MIC values were determined against respective bacteria. After the initial MIC experiment, serial passaging was initiated by transferring bacterial suspension grown at the sub-MIC of the polymer/antibiotics and was subjected to another MIC assay. […] The process was repeated for 14 passages for both S. aureus and A. baumannii respectively. The fold increase in MIC for test polymer to the control antibiotics was plotted against the number of passages to determine the propensity of bacterial resistance development.

[2] = test system: S. aureus; assay: Resistance study by serial passaging at sub-MIC; type: cell-based; conditions: 14 passages at sub-MIC (MIC/2)
Method: as §1

Compound | change in MIC on serial passaging [1] | change in MIC on serial passaging [2]
colistin | gradual increase in MIC | 
CCn1cc(C(=O)O)c(=O)c2cc(F)c(N3CCNCC3)cc21 [norfloxacin] |  | gradual increase in MIC
